Measurements from patent US7598260B2, “CDK-inhibitory pyrimidines, their production and use as pharmaceutical agents” (Bayer Schering Pharma Aktiengesellschaft, priority 2001, dated 2009).
pIC50: −log10 of the molar value. Like-named read-outs stand apart in the source and are kept apart here.

How the values were obtained:
MCF-7 cells = assay: Proliferation assay, crystal violet staining (cell test), MCF-7; type: cell-based; settings: Homo sapiens; for pIC50: MCF7, MCF-7 cells, comparison with known compounds, read-out: MCF-7 IC50; for IC50: 96 h, MCF7 cells, 4 days incubation, read-out: Proliferation IC50 [μM] MCF7
Description: (§1) Cultivated human tumor cells (as indicated) are flattened out at a density of 5000 cells/measuring point in a 96-hole multititer plate in 200 μl of the corresponding growth medium. After 24 hours, the cells of one plate (zero-point plate) are colored with crystal violet (see below), while the medium of the other plates is replaced by fresh culture medium (200 μl), to which the test substances are added at various concentrations (0 μm, as well as in the range of 0.01-30 μm; the final concentration of the solvent dimethyl sulfoxide is 0.5%). The cells are incubated for 4 days in the presence of test substances. The cell proliferation is determined by coloring the cells with crystal violet: the cells are fixed by adding 20 μl/measuring point of a 11% glutaric aldehyde solution for 15 minutes at room temperature. After three washing cycles of the fixed cells with water, the plates are dried at room temperature. The cells are colored by adding 100 μl/measuring point of a 0.1% crystal violet solution (pH is set at 3 by adding acetic acid). After three washing cycles of the colored cells with water, the plates are dried at room temperature. The dye is dissolved by adding 100 μl/measuring point of a 10% acetic acid solution. The extinction is determined by photometry at a wavelength of 595 nm. The change of cell growth, in percent, is calculated by standardization of the measured values to the extinction values of the zero-point plate (=0%) and the extinction of the untreated (0 μm) cells (=100%).

CDK2/CycE = biological target: T1, CDK2/CycE (Homo sapiens, UniProt P24941); assay: CDK2/CycE kinase assay (enzyme test); type: biochemical; settings: read-out: Inhibition IC50 [nM] CDK2/CycE
T1 construct: GST; purchased Dr. Dieter Marmé, Klinik für Tumorbiologie, Freiburg; host or cells: baculovirus-infected Sf9 insect cells
Description: Recombinant CDK2- and CycE-GST-fusion proteins, purified from baculovirus-infected insect cells (Sf9), are obtained by Dr. Dieter Marmé, Klinik für Tumorbiologie [Clinic for Tumor Biology], Freiburg. Histone IIIS, which is used as a kinase substrate, is purchased by the Sigma Company.
The reaction was is stopped by adding EDTA solution (250 mmol, pH 8.0, 14 μl/measuring point).
From each reaction batch, 10 μl applied to P30 filter strips (Wallac Company), and non-incorporated ^33P-ATP is removed by subjecting the filter strips to three washing cycles for 10 minutes each in 0.5% phosphoric acid. After the filter strips are dried for one hour at 70° C., the filter were are covered with scintillator strips (MeltiLex™ A, Wallac Company) and baked for one hour at 90° C. The amount of incorporated ^33P (substrate phosphorylation) is determined by scintillation measurement in a gamma-radiation measuring device (Wallac).

[1] = Solubility (Löslichkeit, g/l); type: physicochemical
[2] = test system: human tumor cells (as indicated); assay: Proliferation assay, crystal violet staining, other human tumor cells as indicated in the tables; type: cell-based; settings: 4 days incubation
Description: as §1

[3] = NCI-H460, 96 h, H460 cells, read-out: Proliferation IC50 [μM] H460
[4] = DU-145, 96 h, DU145 cells, read-out: Proliferation IC50 [μM] DU145
[5] = HCT-116, 96 h, HCT116 cells, read-out: Proliferation IC50 [μM] HCT116

SMILES | IC50 (CDK2/CycE) [nM] | IC50 (MCF-7 cells) [µM] | Sw [1] [g/L] | other results
O=C1Cc2c([nH]c3ccc([N+](=O)[O-])cc23)-c2ccccc2N1 [Alsterpaullone, reference compound] | – | – | – | pIC50 (MCF-7 cells): 5.92
COC[C@H](C)Nc1nc(Nc2ccc(O)cc2)ncc1Br [Example 1] | 300 | 8 | – | –
Oc1ccc(Nc2ncc(Br)c(NCCN3CCOCC3)n2)cc1 [Example 2] | 700 | – | – | –
OCC(CO)Nc1nc(Nc2ccc(O)cc2)ncc1Br [Example 3] | 200 | 8 | 0.039 | –
CC(C)[C@H](CO)Nc1nc(Nc2ccc(O)cc2)ncc1Br [Example 4] | 40 | 8 | 0.042 | –
C#CCNc1nc(Nc2ccc(O)cc2)ncc1Br [Example 5, 4-[[5-Bromo-4-(2-propynylamino)-2-pyrimidinyl]amino]-phenol] | 90 | 10 | 0.043 | –
C#CCOc1nc(Nc2ccc(O)cc2)ncc1Br [Example 6, 4-[[5-Bromo-4-(2-propynyloxy)-2-pyrimidinyl]amino]-phenol] | 70 | 4 | 0.008 | IC50 [2, 3]: 6 µM
COC[C@H](C)Nc1nc(Nc2ccc(S(N)(=O)=O)cc2)ncc1Br [Example 7] | 6 | 0.7 | 0.028 | IC50 [2, 4]: 0.5 µM; IC50 [2, 5]: 1.2 µM; IC50 [2, 3]: 1.5 µM
NS(=O)(=O)c1ccc(Nc2ncc(Br)c(NCCN3CCOCC3)n2)cc1 [Example 8] | < 10 | 4 | 0.007 | –
NS(=O)(=O)c1ccc(Nc2ncc(Br)c(NC(CO)CO)n2)cc1 [Example 9] | 7 | 0.9 | – | pIC50 (MCF-7 cells): 6.05; IC50 [2, 4]: 3 µM; IC50 [2, 5]: 3 µM; Löslichkeit ([1]; comparison with known compounds): 0.009 g/L
CC(C)[C@H](CO)Nc1nc(Nc2ccc(S(N)(=O)=O)cc2)ncc1Br [Example 10] | 4 | 0.2 | – | IC50 [2, 4]: 0.5 µM; IC50 [2, 5]: 0.5 µM; IC50 [2, 3]: 0.5 µM
C#CCNc1nc(Nc2ccc(S(N)(=O)=O)cc2)ncc1Br [Example 11] | 6 | 0.2 | – | pIC50 (MCF-7 cells): 6.70; IC50 [2, 4]: 0.2 µM; IC50 [2, 5]: 0.3 µM; IC50 [2, 3]: 0.5 µM
COC[C@H](C)Nc1nc(Nc2ccc(SC)cc2)ncc1Br [Example 12] | 400 | 4 | – | –
CSc1ccc(Nc2ncc(Br)c(NCCN3CCOCC3)n2)cc1 [Example 13] | 2000 | > 10 | – | –
CSc1ccc(Nc2ncc(Br)c(NC(CO)CO)n2)cc1 [Example 14] | 200 | 3 | 0.013 | –
CSc1ccc(Nc2ncc(Br)c(N[C@@H](CO)C(C)C)n2)cc1 [Example 15] | 300 | > 10 | 0.024 | –
C#CCNc1nc(Nc2ccc(SC)cc2)ncc1Br [Example 16, 5-Bromo-N2-(4-methylthiophenyl)-N4-2-propynyl-2,4-pyrimidine diamine] | 300 | 3 | – | –
COC[C@H](C)Nc1nc(Nc2cccc(S(=O)(=O)CCO)c2)ncc1Br [Example 17] | 1000 | > 10 | 0.04 | –
O=S(=O)(CCO)c1cccc(Nc2ncc(Br)c(NCCN3CCOCC3)n2)c1 [Example 18] | 2000 | – | 0.039 | –
O=S(=O)(CCO)c1cccc(Nc2ncc(Br)c(NC(CO)CO)n2)c1 [Example 19] | 800 | > 10 | 0.041 | –
C#CCOc1nc(Nc2cccc(O)c2)ncc1Br [Example 20] | 60 | 4 | – | –
C#CCNc1nc(Nc2cccc(S(=O)(=O)CCO)c2)ncc1Br [Example 21] | 400 | 2 | – | –
C#CCNc1nc(Nc2ccc(SC(F)F)cc2)ncc1Br [Example 23, 5-Bromo-N2-(4-difluoromethylthiophenyl)-N4-2-propynyl-2,4-pyrimidine diamine] | 180 | 3 | – | –
C#CCNc1nc(Nc2ccc(SC(F)(F)F)cc2)ncc1Br [Example 24, 5-Bromo-N4-2-propynyl-N2-(4-trifluoromethylthiophenyl)-2,4-pyrimidine diamine] | 400 | 5 | – | –

SMILES | IC50 (CDK2/CycE) [nM] | IC50 (MCF-7 cells) [µM] | Sw [1] [g/L] | other results
C#CCNc1nc(Nc2cccc(SC)c2)ncc1Br [Example 26] | 300 | 3 | – | –
C#CCNc1nc(Nc2cccc(S(=O)(=O)C(F)(F)F)c2)ncc1Br [Example 27] | > 10000 | – | – | –
C#CCNc1nc(Nc2ccc(CP(=O)(OCC)OCC)cc2)ncc1Br [Example 31] | 800 | 7 | 0.0023 | –
C#CCNc1nc(Nc2cccc(S(=O)(=O)NCCCC)c2)ncc1Br [Example 34] | 1800 | – | – | –
C#CCNc1nc(Nc2cccc(SC(F)(F)F)c2)ncc1Br [Example 35, 5-Bromo-N4-2-propynyl-N2-(3-trifluoromethylthiophenyl)-2,4-pyrimidine diamine] | 120 | > 10 | – | –
C#CCNc1nc(Nc2ccc3[nH]ncc3c2)ncc1Br [Example 37, N-[5-Bromo-4-(2-propynylamino)-2-pyrimidinyl]-indazol-5-amine] | 70 | 4 | 0.006 | –
C#CCNc1nc(Nc2ccc3scnc3c2)ncc1Br [Example 38, N-[5-Bromo-4-(2-propynylamino)-2-pyrimidinyl]-benzothiazole-5-amine] | 80 | > 10 | – | –
C#CCNc1nc(Nc2ccc3c(c2)CCN3S(C)(=O)=O)ncc1Br [Example 39] | 300 | – | 0.0016 | –
NS(=O)(=O)c1ccc(Nc2ncc(Br)c(NCC3CC3)n2)cc1 [Example 46] | 7 | 2 | 0.0069 | –
NS(=O)(=O)c1ccc(Nc2ncc(Br)c(OCCCC(F)(F)F)n2)cc1 [Example 47] | 12 | 0.7 | – | IC50 [2, 4]: 0.9 µM; IC50 [2, 5]: 1.3 µM; IC50 [2, 3]: 1.8 µM
NS(=O)(=O)c1ccc(Nc2ncc(Br)c(NCCCC(=O)O)n2)cc1 [Example 49] | 50 | > 10 | 0.044 | –
C#CCNc1nc(Nc2ccc(C(C)=O)cc2)ncc1Br [Example 50, 1-[4-[(5-Bromo-4-(2-propynylamino)-2-pyrimidinyl)amino]phenyl]-ethanone] | 150 | – | – | –
C#CCOc1nc(Nc2cccc(OCC3CO3)c2)ncc1Br (stereo not drawn) [Example 51] | 70 | 8 | – | –
CC(=O)c1ccc(Nc2ncc(Br)c(N[C@H](CO)C(C)C)n2)cc1 [Example 53] | 300 | 1.6 | 0.026 | –
CC(=O)c1ccc(Nc2ncc(Br)c(N[C@@H](CO)C(C)C)n2)cc1 [Example 56] | 80 | 4 | 0.023 | –
CC(=O)c1ccc(Nc2ncc(Br)c(OCCCC(F)(F)F)n2)cc1 [Example 84] | 400 | – | 0.0005 | –
CCOC(=O)CCCNc1nc(Nc2ccc(C(C)=O)cc2)ncc1Br [Example 85] | 2000 | – | 0.001 | –
CCOCCOCCOc1nc(Nc2ccc(C(C)=O)cc2)ncc1Br [Example 86] | 3000 | – | – | –
CC(=O)c1ccc(Nc2ncc(Br)c(NCCc3c[nH]cn3)n2)cc1 [Example 87] | 250 | 0.8 | 0.003 | –
C#CCOc1nc(Nc2ccc(OCC(O)CN3CCN(Cc4ccc5c(c4)OCO5)CC3)cc2)ncc1Br (stereo not drawn) [Example 96] | 400 | – | – | –
C#CCOc1nc(Nc2ccc(OCC(O)CN3CCN(c4ccccc4C#N)CC3)cc2)ncc1Br (stereo not drawn) [Example 98] | 2000 | – | – | –
O=C1Cc2c([nH]c3ccc(Br)cc23)-c2ccccc2N1 [Kenpaullone, reference compound] | – | – | – | pIC50 (MCF-7 cells): 5.22
Cn1cnc2c(NCc3ccccc3)nc(NCCO)nc21 [Olomoucine, reference compound] | – | – | – | pIC50 (MCF-7 cells): 4.52
CC(C)[C@H](CO)Nc1nc(Nc2cccc(Cl)c2)c2ncn(C(C)C)c2n1 [Purvalanol A, reference compound] | – | – | – | pIC50 (MCF-7 cells): 5.70
